Experiments:
Assay in all cases: KINOMEscan competition binding
Settings in all cases: compound 10.0 µM
NTRK1 (human) = NTRK1 (human) (UniProt P04629)
PDGFRB (human) = PDGFRB (human) (UniProt P09619)
CASK (human) = CASK (human) (UniProt O14936)
TEK (human) = TEK (human) (UniProt Q02763)
TSSK1B (human) = TSSK1B (human) (UniProt Q9BXA7)
SNRK (human) = SNRK (human) (UniProt Q9NRH2)
MAP4K1 (human) = MAP4K1 (human) (UniProt Q92918)
NTRK3 (human) = NTRK3 (human) (UniProt Q16288)
CDK13 (human) = CDK13 (human) (UniProt Q14004)
MAP4K2 (human) = MAP4K2 (human) (UniProt Q12851)
ERBB3 (human) = ERBB3 (human) (UniProt P21860)
RIOK2 (human) = RIOK2 (human) (UniProt Q9BVS4)
MYO3B (human) = MYO3B (human) (UniProt Q8WXR4)
YSK4 (human) = YSK4 (human) (UniProt Q56UN5)
EPHB3 (human) = EPHB3 (human) (UniProt P54753)
PTK6 (human) = PTK6 (human) (UniProt Q13882)
CAMK1G (human) = CAMK1G (human) (UniProt Q96NX5)
CLK2 (human) = CLK2 (human) (UniProt P49760)
[1] = target: TYK2 JH2 pseudokinase (human) (UniProt P29597)
ABL2 (human) = ABL2 (human) (UniProt P42684)
AKT1 (human) = AKT1 (human) (UniProt P31749)
AURKB (human) = AURKB (human) (UniProt Q96GD4)
SIK3 (human) = SIK3 (human) (UniProt Q9Y2K2)
FYN (human) = FYN (human) (UniProt P06241)
EPHA7 (human) = EPHA7 (human) (UniProt Q15375)
CSNK1E (human) = CSNK1E (human) (UniProt P49674)
AAK1 (human) = AAK1 (human) (UniProt Q2M2I8)
ACVR2A (human) = ACVR2A (human) (UniProt P27037)
DYRK1B (human) = DYRK1B (human) (UniProt Q9Y463)
PIP4K2C (human) = PIP4K2C (human) (UniProt Q8TBX8)
DMPK (human) = DMPK (human) (UniProt Q09013)
EPHA4 (human) = EPHA4 (human) (UniProt P54764)
BLK (human) = BLK (human) (UniProt P51451)
PTK2 (human) = PTK2 (human) (UniProt Q05397)
DSTYK (human) = DSTYK (human) (UniProt Q6XUX3)
MARK2 (human) = MARK2 (human) (UniProt Q7KZI7)
MAP2K2 (human) = MAP2K2 (human) (UniProt P36507)
NEK3 (human) = NEK3 (human) (UniProt P51956)
SRPK3 (human) = SRPK3 (human) (UniProt Q9UPE1)
SRPK2 (human) = SRPK2 (human) (UniProt P78362)

Sequence of DSTYK (human) (Q6XUX3 whole entry, looked up): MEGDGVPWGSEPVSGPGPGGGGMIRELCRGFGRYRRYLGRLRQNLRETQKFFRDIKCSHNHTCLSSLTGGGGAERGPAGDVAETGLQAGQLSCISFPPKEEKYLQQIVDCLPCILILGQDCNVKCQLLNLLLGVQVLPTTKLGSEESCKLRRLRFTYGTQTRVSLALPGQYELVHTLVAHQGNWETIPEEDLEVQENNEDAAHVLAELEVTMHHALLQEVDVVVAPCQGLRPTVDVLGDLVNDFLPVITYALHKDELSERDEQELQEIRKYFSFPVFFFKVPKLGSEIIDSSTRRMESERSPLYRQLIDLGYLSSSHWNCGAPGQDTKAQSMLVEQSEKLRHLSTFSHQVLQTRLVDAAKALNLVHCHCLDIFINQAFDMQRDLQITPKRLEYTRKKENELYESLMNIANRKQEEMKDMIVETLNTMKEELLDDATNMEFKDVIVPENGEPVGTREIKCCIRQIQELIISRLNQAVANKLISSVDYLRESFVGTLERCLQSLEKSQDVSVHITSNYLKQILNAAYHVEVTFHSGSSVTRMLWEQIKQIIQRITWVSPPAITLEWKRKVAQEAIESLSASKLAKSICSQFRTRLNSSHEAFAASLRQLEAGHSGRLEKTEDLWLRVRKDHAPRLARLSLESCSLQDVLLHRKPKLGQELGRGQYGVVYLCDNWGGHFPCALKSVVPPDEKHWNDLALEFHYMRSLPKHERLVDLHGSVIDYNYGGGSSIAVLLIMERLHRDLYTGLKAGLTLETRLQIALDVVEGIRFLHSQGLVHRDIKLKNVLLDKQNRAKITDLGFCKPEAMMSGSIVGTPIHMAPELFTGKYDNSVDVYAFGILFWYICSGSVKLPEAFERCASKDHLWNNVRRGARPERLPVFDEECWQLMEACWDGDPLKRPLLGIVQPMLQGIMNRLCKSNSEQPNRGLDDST
Sequence of MYO3B (human) (Q8WXR4 whole entry, looked up): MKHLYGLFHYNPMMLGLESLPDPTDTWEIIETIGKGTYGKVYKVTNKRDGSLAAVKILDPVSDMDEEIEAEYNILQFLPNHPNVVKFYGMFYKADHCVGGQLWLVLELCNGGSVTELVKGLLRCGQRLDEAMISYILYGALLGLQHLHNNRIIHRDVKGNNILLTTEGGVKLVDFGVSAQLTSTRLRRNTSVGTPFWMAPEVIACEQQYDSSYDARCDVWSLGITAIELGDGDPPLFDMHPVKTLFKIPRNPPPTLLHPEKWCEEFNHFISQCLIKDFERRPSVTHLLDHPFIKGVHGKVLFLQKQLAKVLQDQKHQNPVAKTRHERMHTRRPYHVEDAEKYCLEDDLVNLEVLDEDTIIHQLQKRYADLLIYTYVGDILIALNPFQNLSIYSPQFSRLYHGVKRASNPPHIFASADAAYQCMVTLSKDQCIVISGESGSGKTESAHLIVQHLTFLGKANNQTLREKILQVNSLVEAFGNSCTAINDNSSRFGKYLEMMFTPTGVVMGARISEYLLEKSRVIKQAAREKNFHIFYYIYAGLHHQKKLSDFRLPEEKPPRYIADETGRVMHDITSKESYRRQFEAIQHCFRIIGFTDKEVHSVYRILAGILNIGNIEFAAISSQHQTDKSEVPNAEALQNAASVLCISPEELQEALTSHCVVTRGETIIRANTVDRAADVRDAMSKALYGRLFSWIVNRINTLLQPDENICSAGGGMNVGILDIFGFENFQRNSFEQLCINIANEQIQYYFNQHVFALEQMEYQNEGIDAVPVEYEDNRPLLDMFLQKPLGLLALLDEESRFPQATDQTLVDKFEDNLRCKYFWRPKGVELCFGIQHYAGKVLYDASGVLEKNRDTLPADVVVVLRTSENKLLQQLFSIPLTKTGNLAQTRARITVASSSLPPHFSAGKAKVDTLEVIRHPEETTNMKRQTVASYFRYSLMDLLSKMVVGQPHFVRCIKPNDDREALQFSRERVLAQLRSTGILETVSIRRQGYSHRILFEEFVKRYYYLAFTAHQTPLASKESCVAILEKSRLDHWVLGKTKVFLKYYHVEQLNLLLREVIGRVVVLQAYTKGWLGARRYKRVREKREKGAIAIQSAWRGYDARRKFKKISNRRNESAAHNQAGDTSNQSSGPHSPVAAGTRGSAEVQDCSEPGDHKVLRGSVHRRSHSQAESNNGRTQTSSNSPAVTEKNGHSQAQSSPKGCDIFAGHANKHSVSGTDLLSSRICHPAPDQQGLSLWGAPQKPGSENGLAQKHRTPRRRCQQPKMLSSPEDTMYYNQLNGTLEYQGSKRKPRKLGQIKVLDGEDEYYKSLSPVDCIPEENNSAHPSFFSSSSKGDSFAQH
Sequence of EPHB3 (human) (P54753 whole entry, looked up): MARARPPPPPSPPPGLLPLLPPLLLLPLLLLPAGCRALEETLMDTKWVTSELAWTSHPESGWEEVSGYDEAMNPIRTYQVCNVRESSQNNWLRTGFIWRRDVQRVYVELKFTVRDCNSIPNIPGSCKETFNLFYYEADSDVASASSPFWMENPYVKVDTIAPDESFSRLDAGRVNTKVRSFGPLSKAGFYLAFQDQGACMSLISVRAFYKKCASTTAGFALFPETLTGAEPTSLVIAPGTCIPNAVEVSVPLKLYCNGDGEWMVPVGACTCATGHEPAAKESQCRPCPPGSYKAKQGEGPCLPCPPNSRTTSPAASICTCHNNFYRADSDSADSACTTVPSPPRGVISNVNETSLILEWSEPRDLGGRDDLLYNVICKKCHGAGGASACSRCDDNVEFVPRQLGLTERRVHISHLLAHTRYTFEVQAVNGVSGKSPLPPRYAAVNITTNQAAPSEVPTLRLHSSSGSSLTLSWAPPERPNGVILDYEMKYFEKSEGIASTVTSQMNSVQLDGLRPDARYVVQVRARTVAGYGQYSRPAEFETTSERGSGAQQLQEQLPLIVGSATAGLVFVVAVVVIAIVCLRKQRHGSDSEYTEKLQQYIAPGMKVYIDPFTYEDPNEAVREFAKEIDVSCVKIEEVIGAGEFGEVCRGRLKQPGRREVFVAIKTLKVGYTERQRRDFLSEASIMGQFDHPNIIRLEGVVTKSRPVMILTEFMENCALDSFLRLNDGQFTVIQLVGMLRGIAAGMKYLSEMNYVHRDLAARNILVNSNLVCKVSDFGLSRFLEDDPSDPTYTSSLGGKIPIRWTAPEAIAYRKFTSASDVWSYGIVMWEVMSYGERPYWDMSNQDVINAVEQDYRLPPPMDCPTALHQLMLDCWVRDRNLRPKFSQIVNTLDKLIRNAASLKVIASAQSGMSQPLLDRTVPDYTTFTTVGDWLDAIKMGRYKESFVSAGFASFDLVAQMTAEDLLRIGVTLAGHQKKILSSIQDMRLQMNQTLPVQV
Sequence of PTK2 (human) (Q05397 whole entry, looked up): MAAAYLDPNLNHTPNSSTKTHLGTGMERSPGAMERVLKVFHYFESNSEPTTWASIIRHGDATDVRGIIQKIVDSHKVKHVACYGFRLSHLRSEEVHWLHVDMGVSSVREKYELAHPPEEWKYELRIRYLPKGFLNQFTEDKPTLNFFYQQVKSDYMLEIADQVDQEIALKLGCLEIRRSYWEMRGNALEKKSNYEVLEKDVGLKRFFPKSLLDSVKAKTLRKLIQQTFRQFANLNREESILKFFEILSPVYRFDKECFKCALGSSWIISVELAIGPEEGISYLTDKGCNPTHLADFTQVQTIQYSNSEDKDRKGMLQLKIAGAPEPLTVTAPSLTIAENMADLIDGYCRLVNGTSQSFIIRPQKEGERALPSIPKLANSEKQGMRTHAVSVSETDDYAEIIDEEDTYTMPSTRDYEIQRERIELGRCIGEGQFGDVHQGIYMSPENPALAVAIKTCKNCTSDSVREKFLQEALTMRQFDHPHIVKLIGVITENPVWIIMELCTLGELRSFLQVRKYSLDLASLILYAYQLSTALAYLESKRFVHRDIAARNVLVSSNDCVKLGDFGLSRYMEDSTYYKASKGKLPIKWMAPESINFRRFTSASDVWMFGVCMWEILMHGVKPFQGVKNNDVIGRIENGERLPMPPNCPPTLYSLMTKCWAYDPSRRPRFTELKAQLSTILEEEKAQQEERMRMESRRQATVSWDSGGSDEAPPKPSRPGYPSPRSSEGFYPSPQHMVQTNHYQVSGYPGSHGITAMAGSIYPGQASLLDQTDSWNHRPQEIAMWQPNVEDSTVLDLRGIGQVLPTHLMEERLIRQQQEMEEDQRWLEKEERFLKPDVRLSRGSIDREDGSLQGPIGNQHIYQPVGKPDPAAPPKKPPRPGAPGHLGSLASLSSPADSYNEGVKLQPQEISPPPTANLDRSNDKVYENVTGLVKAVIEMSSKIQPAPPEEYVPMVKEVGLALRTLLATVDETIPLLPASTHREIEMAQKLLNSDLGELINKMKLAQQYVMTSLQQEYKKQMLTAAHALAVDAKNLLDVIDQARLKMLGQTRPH
Sequence of MAP2K2 (human) (P36507 whole entry, looked up): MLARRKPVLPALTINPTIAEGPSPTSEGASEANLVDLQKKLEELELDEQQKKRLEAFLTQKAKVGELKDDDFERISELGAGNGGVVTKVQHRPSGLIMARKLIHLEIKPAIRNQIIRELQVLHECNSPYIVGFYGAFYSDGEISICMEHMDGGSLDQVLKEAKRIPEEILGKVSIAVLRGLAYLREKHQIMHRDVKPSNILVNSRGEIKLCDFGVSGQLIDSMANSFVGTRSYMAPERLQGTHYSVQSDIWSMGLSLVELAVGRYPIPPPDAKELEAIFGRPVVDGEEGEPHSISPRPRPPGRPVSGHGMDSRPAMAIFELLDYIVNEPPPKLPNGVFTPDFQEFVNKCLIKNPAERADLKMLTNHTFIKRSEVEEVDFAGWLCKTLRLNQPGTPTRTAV
Sequence of TSSK1B (human) (Q9BXA7 whole entry, looked up): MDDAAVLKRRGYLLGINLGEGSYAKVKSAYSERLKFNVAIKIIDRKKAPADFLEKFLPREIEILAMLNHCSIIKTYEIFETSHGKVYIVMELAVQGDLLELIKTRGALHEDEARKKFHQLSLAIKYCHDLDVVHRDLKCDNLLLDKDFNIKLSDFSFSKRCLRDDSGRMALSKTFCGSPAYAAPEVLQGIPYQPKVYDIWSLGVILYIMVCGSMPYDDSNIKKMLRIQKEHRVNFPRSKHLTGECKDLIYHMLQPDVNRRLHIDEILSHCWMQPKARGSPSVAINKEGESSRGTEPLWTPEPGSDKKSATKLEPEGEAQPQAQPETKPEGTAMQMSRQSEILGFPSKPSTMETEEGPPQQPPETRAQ

Structure (SMILES) | kinase still bound, per cent of control (NTRK1 (human)) [%] | kinase still bound, per cent of control (PDGFRB (human)) [%] | kinase still bound, per cent of control (CASK (human)) [%] | kinase still bound, per cent of control (TEK (human)) [%] | kinase still bound, per cent of control (TSSK1B (human)) [%] | kinase still bound, per cent of control (SNRK (human)) [%] | kinase still bound, per cent of control (MAP4K1 (human)) [%] | kinase still bound, per cent of control (NTRK3 (human)) [%] | kinase still bound, per cent of control (CDK13 (human)) [%] | kinase still bound, per cent of control (MAP4K2 (human)) [%] | kinase still bound, per cent of control (ERBB3 (human)) [%] | kinase still bound, per cent of control (RIOK2 (human)) [%] | kinase still bound, per cent of control (MYO3B (human)) [%] | kinase still bound, per cent of control (YSK4 (human)) [%] | kinase still bound, per cent of control (EPHB3 (human)) [%] | kinase still bound, per cent of control (PTK6 (human)) [%] | kinase still bound, per cent of control (CAMK1G (human)) [%] | kinase still bound, per cent of control (CLK2 (human)) [%] | kinase still bound, per cent of control [1] [%] | kinase still bound, per cent of control (ABL2 (human)) [%] | further results
C=CC(=O)Nc1cc(-n2c(=O)ccc3cnc4ccc(-c5cn[nH]c5)cc4c32)ccc1C | 65 | 5.6 | 58 | 100 | 87 | 100 | 90 | 93 | 100 | 9.4 | 94 | 12 | 100 | 1.2 | 100 | 100 | 79 | 1.6 | 36 | 86 | kinase still bound, per cent of control (AKT1 (human)): 89%; kinase still bound, per cent of control (AURKB (human)): 97%; kinase still bound, per cent of control (SIK3 (human)): 78%; kinase still bound, per cent of control (FYN (human)): 90%; kinase still bound, per cent of control (EPHA7 (human)): 99%; kinase still bound, per cent of control (CSNK1E (human)): 88%; kinase still bound, per cent of control (AAK1 (human)): 18%; kinase still bound, per cent of control (ACVR2A (human)): 76%; kinase still bound, per cent of control (DYRK1B (human)): 1.8%; kinase still bound, per cent of control (PIP4K2C (human)): 2.7%; kinase still bound, per cent of control (DMPK (human)): 59%; kinase still bound, per cent of control (EPHA4 (human)): 97%; kinase still bound, per cent of control (BLK (human)): 2.4%; kinase still bound, per cent of control (PTK2 (human)): 96%; kinase still bound, per cent of control (DSTYK (human)): 70%; kinase still bound, per cent of control (MARK2 (human)): 83%; kinase still bound, per cent of control (MAP2K2 (human)): 83%; kinase still bound, per cent of control (NEK3 (human)): 77%; kinase still bound, per cent of control (SRPK3 (human)): 68%; kinase still bound, per cent of control (SRPK2 (human)): 96%
O=c1cc(N2CCOCC2)oc2c(-c3cccc4c3sc3ccccc34)cccc12 | 81 | 76 | 100 | 100 | 83 | 73 | 90 | 74 | 100 | 100 | 72 | 22 | 100 | 100 | 100 | 98 | 85 | 65 | 100 | 92 | kinase still bound, per cent of control (AKT1 (human)): 89%; kinase still bound, per cent of control (AURKB (human)): 100%; kinase still bound, per cent of control (SIK3 (human)): 92%; kinase still bound, per cent of control (FYN (human)): 100%; kinase still bound, per cent of control (EPHA7 (human)): 85%; kinase still bound, per cent of control (CSNK1E (human)): 76%; kinase still bound, per cent of control (AAK1 (human)): 87%; kinase still bound, per cent of control (ACVR2A (human)): 96%; kinase still bound, per cent of control (DYRK1B (human)): 85%; kinase still bound, per cent of control (PIP4K2C (human)): 89%; kinase still bound, per cent of control (DMPK (human)): 89%; kinase still bound, per cent of control (EPHA4 (human)): 82%; kinase still bound, per cent of control (BLK (human)): 100%; kinase still bound, per cent of control (PTK2 (human)): 70%; kinase still bound, per cent of control (DSTYK (human)): 99%; kinase still bound, per cent of control (MARK2 (human)): 90%; kinase still bound, per cent of control (MAP2K2 (human)): 97%; kinase still bound, per cent of control (NEK3 (human)): 100%; kinase still bound, per cent of control (SRPK3 (human)): 100%; kinase still bound, per cent of control (SRPK2 (human)): 78%

Source: the kinase profiling compilation of Christmann-Franck et al. (2016)
